Assay results: patent publication US5491220A, “Surface loop structural analogues of fibroblast growth factors” (Yeda Research and Development Co., Ltd., priority 1994, dated 1996)

Tests used:
[1] = tested on: FGFR2(IIIb) (FGF-7 or KGF receptor); experiment: Competition binding to soluble FGFR2(IIIb) (displacement of 125I-FGF-7); set-up: species or system murine
Description: (§1) Binding of FGF proteins to different FGF receptors are determined in this example, by measuring the degree of competition for binding to different types of FGF-receptor proteins between a radioiodinated FGF protein and various unlabelled proteins, or by the direct binding of radioiodinated FGF's to various receptor proteins. Binding studies are confirmed by chemical cross-linking of the radioiodinated FGF to soluble receptors in the presence and absence of excess unlabelled FGF.
(§2) Soluble FGF receptor proteins are constructed by cloning of the extracellular region of murine FGF receptor 1 (FGFR-1; flg), FGF receptor 2 (FGFR-2; bek) or the KGF receptor (FGFR(IIIb); K-sam) into the alkaline phosphatase-tag expression vector, which encodes for a secreted form of placental alkaline phosphatase (AP). The FGF receptor alkaline phosphatase (FRAP) plasmids are cotransfected into NIH 3T3 cells by electroporation with a selectable neomycin resistance gene. Clonies are selected in G418 (600 μg/ml) and screened for secreted AP enzyme activity in the conditioned medium. Clones of each receptor which produced a high level of AP activity (2 to 4 A405 units/min/ml) are then used to produce conditioned medium for binding assays.
Components of the soluble receptor binding reaction mixture include FRAP-conditioned medium (0.24 OD units/min), 2 ng/ml^125 I-FGFs and 200 ng/ml heparin. The FGF:heparin:FRAP terniary complex is immunoprecipitated with 20 μl of a 1:1 slurry of anti-AP monoclonal antibodies coupled to protein A Sepharose®. All components are mixed at room temperature. The total volume is adjusted to 200 μl by addition of DMEM containing 0.1% bovine serum albumin. Binding is allowed to proceed for 1 to 2 hours at 24° C., after which time bound receptor complex or the ligand is recovered by centrifugation at 4° C. (10 s at 2,000×g). The pelleted material is washed twice with 500 μl of an ice cold buffer containing HEPES (20 mM), NaCl (150 mM), glycerol (10%) and Triton® X-100 (1%). ^125 I-FGF binding is quantitated by counting of the samples in a gamma counter (LKB). Alternatively, AP enzyme activity of the FRAP protein is determined by transferring the FRAP receptor bound to […] to a flat-bottom microtiter plate in a volume of 50 μl of PBS. The reaction is initiated by addition of substrate (50 μl of 2× solution of AP assay buffer containing 2M diethanoiamine, 1 mM MgCl2, 20 mM homoarginine and 12 mM p-nitrophenyl phosphate). The reaction is followed at room temperature at 405 nm in a kinetic microplate reader.

[2] = tested on: FGFR2(IIIb); experiment: Chemical cross-linking of 125I-FGF to soluble FGFR2(IIIb); format: binding, murine; conditions: with and without excess unlabelled FGF
Description: as §1, §2
(§3) Chemical cross-linking experiments are carried out at room temperature in a volume of 20 μl in siliconized 0.5-ml microcentrifuge tubes. The reaction mixtures contain FGF receptor immobilized to anti-AP monoclonal antibodies coupled to protein A Sepharose®, 200 ng/ml heparin, 2 ng/ml^125 I-bFGF, 20 mM phosphate buffer (pH 7.4), and 140 mM NaCl. After a 90 minute incubation, […] of a solution of disuccinimidyl suberate (Pierce) dissolved in dimethyl sulfoxide is added to give a final concentration of 0.15 mM, and the mixture incubated for an additional 30 minutes. The reaction is quenched by addition of […] of 200 mM ethanolamine-HCl (pH 8.0) for 30 min. The reaction mixtures are diluted 1:1 with 2× SDS-polyacrylamide gel electrophoresis loading buffer and electrophoresed on an SDS-12% polyacrylamide gel. Cross-linked FGF to the FGF receptor are detected by autoradiography on Kodak XAR film.

[3] = Affinity for immobilized heparin (NaCl elution from heparin column); format: binding; conditions: TSK-heparin column
Description: Cells from 1 liter cultures are harvested by centrifugation, resuspended in 30 ml of 50 mM Tris-HCl, pH 7.5 containing 0.1 mM EDTA and 0.6M NaCl, and disrupted by treatment with lysozyme (10 μg/ml) for 20 min at 4° C. followed by sonication (6×30 sec pulses). The lysates are clarified by centrifugation (10,000×g; 20 min) and the supernatant solutions incubated with 5 ml of hydrated heparin Sepharose (Pharmacia/LKB) at 4° C. for 1 hour with constant rotation. The resin is isolated by filtration on 0.8 μm filter apparatus (Nalgene), washed extensively with 10 mM Tris-HCl pH 7.4 containing 0.6M NaCl and bound protein eluted with Tris buffer containing 3M NaCl (25 ml). The 3M NaCl eluent is diluted 6-fold with Tris buffer and loaded onto a TSK heparin 5PW column (0.21×15 cm; The Nest Group, MA) and the column developed using a linear NaCl gradient (0.6 to 2M) in 90 min at a flow rate of […].
NaCl elution from heparin-Sepharose® is about 0.7M NaCl, compared with 1.4M NaCl for the wild-type protein. The molarity of NaCl required to elute the LK mutant is similar to that required to elute FGF-7.

[4] = tested on: cell-associated urokinase-type plasminogen activator (uPA) activity in ABAE cells; experiment: Urokinase-type plasminogen activator induction in ABAE cells; format: cell-based, bovine; conditions: 24 hours, compared with FGF-2
Description: Urokinase-type plasminogen activator induction by the FGF mutants is evaluated. Adult bovine aortic endothelial (ABAE) cells are seeded at 20,000 cells/well in 96-well plates and maintained in DMEM containing 10% calf serum (Hyclone, Logan, Utah) supplemented with penicillin (100 units/ml), streptomycin (100 μg/ml) and L-glutamine (2 mM) and different concentrations of FGF-2 or mutants. After 24 hours, the cells are washed with phosphate-buffered saline and lysed in 60 mM Tris-HCl, pH 8.5, containing 0.05% Triton® X-100. Cell-associated urokinase-type plasminogen activator (uPA) activity is measured as described by Presta, et al., cited above, using the plasmin chromogenic substrate D-norleucyl-hexahydrotyrosyllysine p-nitroanilide acetate (American Diagnostics, Greenwich, Conn.). Cell-associated protein concentrations are determined using Coomassie blue binding to protein. The results are plotted in FIG. 5.

[5] = tested on: FGFR1; experiment: Chemical cross-linking of 125I-FGF to soluble FGFR1; format: binding, murine; conditions: with and without excess unlabelled FGF
Description: as §1, §2, §3

| Binding to FGFR2(IIIb), times less than that of FGF-7 or FGF-1 [1] | Binding to soluble FGFR2(IIIb) (competition with 125I-FGF-7) ([1]; 200 ng/ml heparin) | Substance | Cross-linking to FGFR2(IIIb) [2] | NaCl concentration at elution from TSK-heparin column [3] | Capability to induce urokinase-type plasminogen activator [4] | Cross-linking to FGFR1 [5] |
| --- | --- | --- | --- | --- | --- | --- |
| about 5 times | – | FGF-2LA: human FGF-2 with loop residues 118-122 replaced by Lys-Lys-His-Ala-Glu-Lys-His from bovine FGF-1 (SEQ ID NO 16) (KKHAEKH; printed: Lys-Lys-His-Ala-Glu-Lys-His) | bind | about 1.5 M | significantly reduced | bind |
| – | do not bind | FGF-2LI: human FGF-2 with loop residues 118-122 replaced by Ala-Gln-Phe-Pro-Asn from human interleukin-1β (SEQ ID NO 15) | excluded from binding | about 1.5 M | significantly reduced | bind |
